From US20170334899A1, “AMINO-SUBSTITUTED ISOTHIAZOLES” (Bayer Pharma Aktiengesellschaft, priority 2014, published 2017)

target: T1, human kinase Mps-1 (Homo sapiens, UniProt P33981); test: Mps-1 kinase assay (TR-FRET); type: biochemical; conditions: Mps-1 TR-FRET kinase assay; avg; read-out: Mps1 avg (IC50 [mol/l])
T1 construct: N-terminally GST-tagged human full length recombinant Mps-1 kinase; GST (N); purchased Invitrogen, Karslruhe, Germany PV4071
T1 sequence (P33981 1-857): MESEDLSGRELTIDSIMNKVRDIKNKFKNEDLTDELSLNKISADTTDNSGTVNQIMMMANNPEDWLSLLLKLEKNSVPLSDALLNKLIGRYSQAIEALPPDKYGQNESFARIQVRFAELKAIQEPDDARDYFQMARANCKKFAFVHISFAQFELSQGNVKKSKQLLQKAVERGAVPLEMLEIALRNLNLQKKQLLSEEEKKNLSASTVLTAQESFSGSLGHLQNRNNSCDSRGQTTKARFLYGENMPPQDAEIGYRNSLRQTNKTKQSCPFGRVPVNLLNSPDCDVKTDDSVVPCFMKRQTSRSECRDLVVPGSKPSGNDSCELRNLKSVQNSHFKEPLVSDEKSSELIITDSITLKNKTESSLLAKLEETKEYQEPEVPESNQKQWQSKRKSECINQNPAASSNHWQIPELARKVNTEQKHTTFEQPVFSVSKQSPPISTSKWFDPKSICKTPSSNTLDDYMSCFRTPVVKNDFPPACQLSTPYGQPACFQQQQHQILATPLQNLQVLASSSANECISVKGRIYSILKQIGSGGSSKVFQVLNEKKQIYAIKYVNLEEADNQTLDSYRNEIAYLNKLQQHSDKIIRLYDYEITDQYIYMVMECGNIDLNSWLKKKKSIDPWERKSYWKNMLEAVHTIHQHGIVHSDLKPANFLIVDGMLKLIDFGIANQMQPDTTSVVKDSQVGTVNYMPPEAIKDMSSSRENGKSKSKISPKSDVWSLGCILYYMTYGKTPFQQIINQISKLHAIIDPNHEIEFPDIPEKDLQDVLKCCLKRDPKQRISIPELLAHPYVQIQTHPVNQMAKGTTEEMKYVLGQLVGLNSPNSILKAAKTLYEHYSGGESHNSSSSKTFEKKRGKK
Method: The human kinase Mps-1 phosphorylates a biotinylated substrate peptide. Detection of the phosphorylated product is achieved by time-resolved fluorescence resonance energy transfer (TR-FRET) from Europium-labelled anti-phospho-Serine/Threonine antibody as donor to streptavidin labelled with cross-linked allophycocyanin (SA-XLent) as acceptor. Compounds are tested for their inhibition of the kinase activity.
N-terminally GST-tagged human full length recombinant Mps-1 kinase (purchased from Invitrogen, Karslruhe, Germany, cat. no PV4071) was used. As substrate for the kinase reaction a biotinylated peptide of the amino-acid sequence biotin-Ahx-PWDPDDADITEILG (C-terminus in amide form, purchased from Biosyntan GmbH, Berlin) was used.
For the assay 50 nl of a 100-fold concentrated solution of the test compound in DMSO was pipetted into a black low volume 384we11 microtiter plate (Greiner Bio-One, Frickenhausen, Germany), 2 μl of a solution of Mps-1 in assay buffer [0.1 mM sodium-ortho-vanadate, 10 mM MgCl2,2 mM DTT, 25 mM Hepes pH 7.7, 0.05% BSA (w/v), 0.001% Pluronic F-127] were added and the mixture was incubated for 15 min at 22° C. to allow pre-binding of the test compounds to Mps-1 before the start of the kinase reaction. Then the kinase reaction was started by the addition of 3 μl of a solution of 16.7 μM adenosine-tri-phosphate (ATP, 16.7 μM=>final conc. in the 5 μl assay volume is 10 μM) and peptide substrate (1.67 μM=>final conc. in the 5 μl assay volume is 1 μM) in assay buffer and the resulting mixture was incubated for a reaction time of 60 min at 22° C. The concentration of Mps-1 in the assay was adjusted to the activity of the enzyme lot and was chosen appropriate to have the assay in the linear range, typical enzyme concentrations were in the range of about 0.5 nM (final conc. in the 5 μl assay volume). The reaction was stopped by the addition of 5 μl of a solution of TR-FRET detection reagents (100 mM Hepes pH 7.4, 0.1% BSA, 40 mM EDTA, 140 nM Streptavidin-XLent [#61GSTXLB, Fa. Cis Biointernational, Marcoule, France], 1.5 nM anti-phospho(Ser/Thr)-Europium-antibody [#AD0180, PerkinElmer LAS, Rodgau-Jugesheinn, Germany]. Instead of the 1.5 nM anti-phospho(Ser/Thr)-Europium-antibody a mixture of 2 nM unlabeled anti-phospho ser/thr-pro antibody MPM-2 [Millipore cat. #05-368] and 1 nM LANCE EU-W1024 labeled anti-mouse IgG antibody [Perkin-Elmer, product no. AD0077] can be used).
The resulting mixture was incubated 1 h at 22° C. to allow the binding of the phosphorylated peptide to the anti-phospho(Ser/Thr)-Europium-antibody. Subsequently the amount of phosphorylated substrate was evaluated by measurement of the resonance energy transfer from the Europium-labelled anti-phospho(Ser/Thr) antibody to the Streptavidin-XLent. Therefore, the fluorescence emissions at 620 nm and 665 nm after excitation at 350 nm was measured in a Viewlux TR-FRET reader (PerkinElmer LAS, Rodgau-Jugesheinn, Germany). The “blank-corrected normalized ratio” (a Viewlux specific readout, similar to the traditional ratio of the emissions at 665 nm and at 622 nm, in which blank and Eu-donor crosstalk are subtracted from the 665 nm signal before the ratio is calculated) was taken as the measure for the amount of phosphorylated substrate. The data were normalised (enzyme reaction without inhibitor=0% inhibition, all other assay components but no enzyme=100% inhibition).

IC50 [µM] | SMILES
≥ 20 | CC(=O)N1CCC(Oc2ccc(NC(=O)c3c(C)nsc3Nc3cnc(C(F)(F)F)cn3)cn2)CC1 [Example 11, N-{6-[(1-Acetylpiperidin-4-yl)oxy]pyridin-3-yl}-3-methyl-5-{[5-(trifluoromethyl)-pyrazin-2-yl]amino}-1,2-thiazole-4-carboxamide]
> 20 | Cc1nsc(Nc2cnc3ccccc3n2)c1C(=O)Nc1ccc(N2CCOCC2)nc1 [Example 169, 3-methyl-N-[6-(morpholin-4-yl)pyridin-3-yl]-5-(quinoxalin-2-ylamino)-1,2-thiazole-4-carboxamide]
≥ 20 | Cc1nsc(Nc2cncc(C(F)(F)F)n2)c1C(=O)Nc1ccc(OCC2CCN(C(=O)OC(C)(C)C)C2)nc1 (stereo not shown) [Example 110, tert-Butyl 3-{[(5-{[(3-methyl-5-{[6-(trifluoromethyl)pyrazin-2-yl]amino}-1,2-thiazol-4-yl)carbonyl]amino}pyridin-2-yl)oxy]methyl}pyrrolidine-1-carboxylate]
≥ 20 | Cc1nsc(Nc2cnc(C(F)(F)F)cn2)c1C(=O)Nc1ccc(C(=O)O)cc1 [Example 97, 4-{[(3-Methyl-5-{[5-(trifluoromethyl)pyrazin-2-yl]amino}-1,2-thiazol-4-yl)carbony]-amino}benzoic acid]
≥ 20 | Cc1nsc(Nc2cncc(C(F)(F)F)n2)c1C(=O)Nc1ccc(OC2CCN(C(=O)OC(C)(C)C)CC2)nc1 [Example 12, tert-Butyl 4-[(5-{[(3-methyl-5-{[6-(trifluoromethyl)pyrazin-2-yl]amino}-1,2-thiazol-4-yl)carbonyl]amino}pyridin-2-yl)oxy]piperidine-1-carboxylate]
> 20 | Cc1nsc(Nc2cnc3ccccc3n2)c1C(=O)Nc1ccc(C(=O)N2CCN(CC(F)F)CC2)cc1 [Example 157, N-(4-{[4-(2,2-difluoroethyl)piperazin-1-yl]carbonyl}phenyl)-3-methyl-5-(quinoxalin-2-ylamino)-1,2-thiazole-4-carboxamide]
> 20 | Cc1nsc(Nc2cnc(C(F)(F)F)cn2)c1C(=O)Nc1ccc(C(=O)NC2CCN(CC(F)(F)F)CC2)cc1 [Example 165, 3-methyl-N-(4-{[1-(2,2,2-trifluoroethyl)piperidin-4-yl]carbamoyl}phenyl)-5-{[5-(trifluoromethyl)pyrazin-2-yl]amino}-1,2-thiazole-4-carboxamide]
≥ 20 | CNS(=O)(=O)c1ccc(NC(=O)c2c(C)nsc2Nc2cnc3ccccc3n2)cc1 [Example 111, 3-Methyl-N-[4-(methylsulfannoyl)phenyl]-5-(quinoxalin-2-ylamino)-1,2-thiazole-4-carboxamide]
≥ 20 | Cc1nsc(Nc2cnc(C(F)(F)F)cn2)c1C(=O)Nc1ccc(OCC2CCN(CCF)C2)nc1 (stereo not shown) [Example 121, N-(6-{[1-(2-fluoroethyl)pyrrolidin-3-yl]methoxy}pyridin-3-yl)-3-methyl-5-{[5-(trifluoromethyl)pyrazin-2-yl]amino}-1,2-thiazole-4-carboxamide]
18 | Cc1nsc(Nc2cnc3ccccc3n2)c1C(=O)Nc1cccc(C(=O)N2CCNCC2)c1 [Example 101, 3-Methyl-N-[3-(piperazin-1-ylcarbonyl)phenyl]-5-(quinoxalin-2-ylamino)-1,2-thiazole-4-carboxamide]
> 20 | Cc1nsc(Nc2cnc(C(F)(F)F)cn2)c1C(=O)Nc1ccc(OC[C@@H]2CCN(CCC(F)(F)F)C2)nc1 [Example 129, 3-Methyl-5-{[5-(trifluoromethyl)pyrazin-2-yl]amino}-N-(6-{[(3R)-1-(3,3,3-trifluoropropyl)pyrrolidin-3-yl]methoxy}pyridin-3-yl)-1,2-thiazole-4-carboxamide]
> 20 | Cc1nsc(Nc2cnc(C(F)(F)F)cn2)c1C(=O)Nc1ccc(O[C@@H]2CCN(CC(F)F)C[C@@H]2F)nc1 [Example 137, N-(6-{[(3S,4R)-1-(2,2-difluoroethyl)-3-fluoropiperidin-4-yl]oxy}pyridin-3-yl)-3-methyl-5-{[5-(trifluoromethyl)pyrazin-2-yl]amino}-1,2-thiazole-4-carboxamide]
> 20 | Cc1nsc(Nc2cnc(C(F)(F)F)cn2)c1C(=O)Nc1ccc(OC2CCN(C(C)C)CC2)nc1 [Example 160, N-{6-[(1-isopropylpiperidin-4-yl)oxy]pyridin-3-yl}-3-methyl-5-{[5-(trifluoromethyl)pyrazin-2-yl]amino}-1,2-thiazole-4-carboxamide]
> 20 | CC(=O)Nc1cc(NC(=O)c2c(C)nsc2Nc2ccc(C#N)cn2)ccc1F [Example 152, N-(3-acetamido-4-fluorophenyl)-5-[(5-cyanopyridin-2-yl)amino]-3-methyl-1,2-thiazole-4-carboxamide]
> 20 | Cc1nsc(Nc2cnc(C(F)(F)F)cn2)c1C(=O)Nc1ccc(O[C@@H]2CCN(CC(F)(F)F)C[C@@H]2F)nc1 [Example 138, N-(6-{[(3S,4R)-3-fluoro-1-(2,2,2-trifluoroethyl)piperidin-4-yl]oxy}pyridin-3-yl)-3-methyl-5-{[5-(trifluoromethyl)pyrazin-2-yl]amino}-1,2-thiazole-4-carboxamide]
> 20 | CCCN1CC[C@H](Oc2ccc(NC(=O)c3c(C)nsc3Nc3cnc(C(F)(F)F)cn3)cn2)[C@H](F)C1 [Example 147, N-(6-{[(3R,4S)-3-fluoro-1-propylpiperidin-4-yl]oxy}pyridin-3-yl)-3-methyl-5-{[5-(trifluoromethyl)pyrazin-2-yl]amino}-1,2-thiazole-4-carboxamide]
16 | Cc1nsc(Nc2cnc3ccccc3n2)c1C(=O)Nc1cccc(C(=O)N[C@H](C(=O)O)[C@@H](C)OC(C)(C)C)c1 [Example 104, O-tert-Butyl-N-[3-({[3-methyl-5-(quinoxalin-2-ylamino)-1,2-thiazol-4-yl]-carbonyl}amino)benzoyl]threonine]
12 | COC(=O)CNC(=O)c1cccc(NC(=O)c2c(C)nsc2Nc2cnc3ccccc3n2)c1 [Example 100, Methyl N-[3-({[3-methyl-5-(quinoxalin-2-ylamino)-1,2-thiazol-4-yl]carbonyl}amino)-benzoyl]glycinate]
> 20 | Cc1nsc(Nc2cnc(C(F)(F)F)cn2)c1C(=O)Nc1ccc(OC[C@@H]2CCN(CC(F)(F)F)C2)nc1 [Example 128, 3-Methyl-N-(6-{[(3R)-1-(2,2,2-trifluoroethyl)pyrrolidin-3-yl]methoxy}pyridin-3-yl)-5-{[5-(trifluoromethyl)pyrazin-2-yl]amino}-1,2-thiazole-4-carboxamide]
